Laboratory results taken from patent publication US4273765A, “Amino sugar derivatives containing trehalose” (Hoffmann-La Roche Inc., priority 1978, dated 1981).

Columns and labels:
Solubility in solvents = type: physicochemical
From the text: (h) Solubility in solvents:

Titration (in water) = type: physicochemical
E. coli NIHJ = assay: Antimicrobial spectrum, agar-dilution method; type: cell-based
E. coli NIHJ SMf = assay: Antimicrobial spectrum, agar-dilution method; type: cell-based
E. coli NIHJ STf = assay: Antimicrobial spectrum, agar-dilution method; type: cell-based
E. coli K-12 ML1630 = assay: Antimicrobial spectrum, agar-dilution method; type: cell-based; conditions: E. coli K-12 ML1630, agar-dilution
E. coli CF17 = assay: Antimicrobial spectrum, agar-dilution method; type: cell-based
E. coli CF41 = assay: Antimicrobial spectrum, agar-dilution method; type: cell-based
[1] = system: Salmonella typhimurium IFO12529; assay: Antimicrobial spectrum, agar-dilution method; type: cell-based
Citrobacter = assay: Antimicrobial spectrum, agar-dilution method; type: cell-based
Shigella flexneri = assay: Antimicrobial spectrum, agar-dilution method; type: cell-based
[2] = system: Klebsiella pneumoniae PCI602; assay: Antimicrobial spectrum, agar-dilution method; type: cell-based
[3] = system: Pseudomonas aeruginosa IFO12689; assay: Antimicrobial spectrum, agar-dilution method; type: cell-based
[4] = system: Pseudomonas aeruginosa A3; assay: Antimicrobial spectrum, agar-dilution method; type: cell-based
[5] = system: Pseudomonas aeruginosa P2; assay: Antimicrobial spectrum, agar-dilution method; type: cell-based
[6] = system: Proteus vulgaris OX19 ATCC6898; assay: Antimicrobial spectrum, agar-dilution method; type: cell-based
[7] = system: Bordetella bronchiseptica Aichi 202; assay: Antimicrobial spectrum, agar-dilution method; type: cell-based; conditions: Bordetella bronchiseptica Aichi 202, agar-dilution
Proteus rettgeri = assay: Antimicrobial spectrum, agar-dilution method; type: cell-based
[8] = system: Serratia marcescens IFO12648; assay: Antimicrobial spectrum, agar-dilution method; type: cell-based
[9] = system: Staphylococcus aureus FDA209P; assay: Antimicrobial spectrum, agar-dilution method; type: cell-based
[10] = system: Staphylococcus aureus MS3937; assay: Antimicrobial spectrum, agar-dilution method; type: cell-based
[11] = system: Staphylococcus aureus MS9261; assay: Antimicrobial spectrum, agar-dilution method; type: cell-based
[12] = system: Staphylococcus aureus Smith; assay: Antimicrobial spectrum, agar-dilution method; type: cell-based
[13] = system: Bacillus subtilis PCI 219; assay: Antimicrobial spectrum, agar-dilution method; type: cell-based; conditions: Bacillus subtilis PCI 219, agar-dilution
Sarcina lutea ATCC 9341 = assay: Antimicrobial spectrum, agar-dilution method; type: cell-based; conditions: Sarcina lutea ATCC 9341, agar-dilution
Candida albicans Yu1200 = assay: Antimicrobial spectrum, agar-dilution method; type: cell-based
[14] = system: Mycobacterium smegmatis ATCC607; assay: Antimicrobial spectrum, agar-dilution method; type: cell-based
[15] = molecular target: T1, porcine pancreatic α-amylase (Sus scrofa, UniProt P00690); assay: Porcine pancreatic α-amylase inhibitory activity (Bernfeld assay); type: biochemical; conditions: IU = amount giving 50% inhibition of 2 units porcine pancreatic α-amylase, pH 6.9, 37° C.
T1 sequence (P00690 16-511): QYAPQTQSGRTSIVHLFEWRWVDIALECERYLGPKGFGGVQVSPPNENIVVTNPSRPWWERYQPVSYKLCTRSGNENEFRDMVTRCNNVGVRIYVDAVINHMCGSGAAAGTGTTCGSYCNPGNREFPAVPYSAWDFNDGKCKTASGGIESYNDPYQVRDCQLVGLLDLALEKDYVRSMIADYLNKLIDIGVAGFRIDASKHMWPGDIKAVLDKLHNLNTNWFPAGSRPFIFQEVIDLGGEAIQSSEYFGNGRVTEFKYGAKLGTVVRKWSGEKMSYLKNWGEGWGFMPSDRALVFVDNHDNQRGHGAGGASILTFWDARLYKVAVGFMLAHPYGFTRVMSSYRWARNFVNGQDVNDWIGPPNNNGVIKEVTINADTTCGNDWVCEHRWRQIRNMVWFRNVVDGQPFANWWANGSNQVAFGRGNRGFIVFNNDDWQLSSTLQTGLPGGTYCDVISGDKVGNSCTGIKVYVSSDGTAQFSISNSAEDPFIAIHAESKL
Method: 2 units* of porcine pancreatic α-amylase in 0.1 ml of 6.4 mM ammonium sulfate solution are added to 0.6 ml of 20 mM phosphate buffer (pH 6.9) containing 10 mM sodium chloride and different amounts of Trestatin. The mixture, after equilibration at 37° C. for 5 min. followed by the addition of 0.5 ml of 4% soluble starch solution, is incubated for 5 min. at 37° C. The reaction is terminated by the addition of 2 ml of dinitrosalicylic acid reagent prepared according to the method of P. Bernfeld. The mixture is heated on a boiling water bath for 5 min. and then diluted with 10 ml of water. Absorbance (A1) of the resulting colored solution is measured at 540 nm, and the inhibition of α-amylase activity can be calculated from the following equation: [formula] A0; absorbance without enzyme A2; absorbance without Trestatin
*1 unit of the α-amylase is the amount of enzyme which catalyzes under the above conditions without Trestatin the formation of reducing sugars equivalent to 1 μmol of maltose.
Each of said inhibitory activities was determined by the method mentioned above.

[16] = system: hyperglycemia induced by cooked rice starch; assay: Inhibition of hyperglycemia induced by cooked rice starch, rats; type: in vivo; conditions: p.o., dose causing after 20 minutes a 20 percent decrease of hyperglycemia, 2 g/kg cooked rice starch
Method: (§1) **ED20 is defined as the dose causing after 20 minutes a 20 percent
(§2) decrease of hyperglycemia induced by oral administration of 2 g/kg body
(§3) weight cooked rice starch.

[17] = system: hyperglycemia induced by cooked rice starch; assay: Inhibition of hyperglycemia induced by cooked rice starch, mice; type: in vivo; conditions: p.o., dose causing after 20 minutes a 20 percent decrease of hyperglycemia, 2 g/kg cooked rice starch
Method: as §1, §2, §3

[18] = system: hyperglycemia (hyperinsulinemia) following an oral load of native starch; assay: Hyperglycemia (hyperinsulinemia) following an oral load of native starch; type: in vivo; conditions: 20 min. after wheat starch
Method: (§4) [Plasma Glucose and insulin 20 min. after carbohydrate ± Trestatin (1.
g wheat starch/kg or 3.2 g sucrose/kg)]

[19] = system: hyperglycemia following an oral load of sucrose; assay: Hyperglycemia following an oral load of sucrose; type: in vivo; conditions: dose/kg 30.0 mg; 20 min. after 3.2 g sucrose/kg
Method: as §4
g wheat starch/kg or 3.2 g sucrose/kg)]

Salmonella paratyphi B = conditions: agar-dilution
rats = assay: Acute toxicity, oral, rats; conditions: 500 mg/kg administered to rats orally (65-700 times the effective dosage)

C[C@H]1O[C@H](O[C@H]2[C@H](O)[C@@H](O)[C@@H](O[C@H]3[C@H](O)[C@@H](O)[C@@H](O[C@H]4[C@H](O)[C@@H](O)[C@@H](O[C@H]5O[C@H](CO)[C@@H](O)[C@H](O)[C@H]5O)O[C@@H]4CO)O[C@@H]3CO)O[C@@H]2CO)[C@H](O)[C@@H](O)[C@@H]1N[C@H]1C=C(CO)[C@@H](O[C@H]2O[C@H](CO)[C@@H](O[C@H]3O[C@H](C)[C@@H](NC4C=C(CO)[C@@H](O[C@H]5O[C@H](CO)[C@@H](O[C@H]6O[C@H](C)[C@@H](NC7C=C(CO)[C@@H](O)[C@H](O)[C@H]7O)[C@H](O)[C@H]6O)[C@H](O)[C@H]5O)[C@H](O)[C@H]4O)[C@H](O)[C@H]3O)[C@H](O)[C@H]2O)[C@H](O)[C@H]1O (some centres unmarked) [Trestatin C]
Solubility in acetone (Solubility in solvents; acetone): slightly soluble | Solubility in chloroform (Solubility in solvents; chloroform): insoluble | Solubility in dimethylsulfoxide (Solubility in solvents; dimethylsulfoxide): soluble | Solubility in ethanol (Solubility in solvents; ethanol): slightly soluble | Solubility in ethyl acetate (Solubility in solvents; ethyl acetate): insoluble | Solubility in water (Solubility in solvents; water): easily soluble | pKa' (Titration (in water)): 5.0 | Antimicrobial spectrum (E. coli NIHJ): > 100 µg/mL | Antimicrobial spectrum (E. coli NIHJ SMf): > 100 µg/mL | Antimicrobial spectrum (E. coli NIHJ STf): > 100 µg/mL | Antimicrobial spectrum (E. coli K-12 ML1630): > 100 µg/mL | Antimicrobial spectrum (E. coli CF17): > 100 µg/mL | Antimicrobial spectrum (E. coli CF41): > 100 µg/mL | Antimicrobial spectrum [1]: > 100 µg/mL | Antimicrobial spectrum (Citrobacter): > 100 µg/mL | Antimicrobial spectrum (Shigella flexneri): > 100 µg/mL | Antimicrobial spectrum [2]: > 100 µg/mL | Antimicrobial spectrum [3]: > 100 µg/mL | Antimicrobial spectrum [4]: > 100 µg/mL | Antimicrobial spectrum [5]: > 100 µg/mL | Antimicrobial spectrum [6]: > 100 µg/mL | Antimicrobial spectrum [7]: > 100 µg/mL | Antimicrobial spectrum (Proteus rettgeri): > 100 µg/mL | Antimicrobial spectrum [8]: > 100 µg/mL | Antimicrobial spectrum [9]: > 100 µg/mL | Antimicrobial spectrum [10]: > 100 µg/mL | Antimicrobial spectrum [11]: > 100 µg/mL | Antimicrobial spectrum [12]: > 100 µg/mL | Antimicrobial spectrum [13]: > 100 µg/mL | Antimicrobial spectrum (Sarcina lutea ATCC 9341): > 100 µg/mL | Antimicrobial spectrum (Candida albicans Yu1200): > 100 µg/mL | Antimicrobial spectrum [14]: > 100 µg/mL | Inhibitory activities [15]: 4.9 × 10^7 IU/g | ED20, inhibition of hyperglycemia induced by cooked rice starch [16]: 3.0 mg/kg | ED20, inhibition of hyperglycemia induced by cooked rice starch [17]: 0.7 mg/kg | Plasma glucose, starch - load ([18]; dose/kg 0.3 mg): 71% of carbohydrate primed controls | Plasma insulin, starch - load ([18]; dose/kg 0.3 mg): 51% of carbohydrate primed controls | Plasma glucose, starch - load ([18]; dose/kg 1.0 mg): 60% of carbohydrate primed controls | Plasma insulin, starch - load ([18]; dose/kg 1.0 mg): 51% of carbohydrate primed controls | Plasma glucose, starch - load ([18]; dose/kg 3.0 mg): 58% of carbohydrate primed controls | Plasma insulin, starch - load ([18]; dose/kg 3.0 mg): 63% of carbohydrate primed controls | Plasma glucose, sucrose - load [19]: 85% of carbohydrate primed controls | Antimicrobial spectrum (Salmonella paratyphi B): > 100 µg/mL | Acute toxicity (rats): not observed
